# According to the NIST ThermoML archive (doi:10.1021/acs.jced.5b00181):
# Numbers after ± are expanded uncertainties.
# What was measured:
# [1] = 101 kPa, Liquid; for viscosity: Falling or rolling sphere viscometry; for speed of sound: Frequency=3 MHz, Sing-around technique in a fixed-path interferometer; for mass density: Vibrating tube method
# [2] = xn = mol fraction of the nth substance listed; details: 101 kPa, Liquid, x2 = 0; for viscosity: Falling or rolling sphere viscometry; for speed of sound: Frequency=3 MHz, Sing-around technique in a fixed-path interferometer; for mass density: Vibrating tube method
Compound,viscosity ([2]; 278.15 K),speed of sound ([2]; 278.15 K),mass density ([2]; 278.15 K),viscosity ([2]; 298.15 K),speed of sound ([2]; 298.15 K),mass density ([2]; 298.15 K),viscosity ([2]; 318.15 K),speed of sound ([2]; 318.15 K),mass density ([2]; 318.15 K),viscosity ([2]; 338.15 K),speed of sound ([2]; 338.15 K),mass density ([2]; 338.15 K),other results
CCCO [propan-1-ol],,,,,,,,,,,,,viscosity ([1]; 278.15 K): 3.191 ± 0.072 mPa·s; speed of sound ([1]; 278.15 K): 1275.5 ± 0.82 m/s; mass density ([1]; 278.15 K): 815.46 ± 2 kg/m3; viscosity ([1]; 298.15 K): 1.936 ± 0.07 mPa·s; speed of sound ([1]; 298.15 K): 1205.3 ± 0.8 m/s; mass density ([1]; 298.15 K): 799.55 ± 2 kg/m3; viscosity ([1]; 318.15 K): 1.242 ± 0.069 mPa·s; speed of sound ([1]; 318.15 K): 1137.5 ± 0.78 m/s; mass density ([1]; 318.15 K): 783.18 ± 2 kg/m3; viscosity ([1]; 338.15 K): 0.836 ± 0.068 mPa·s; speed of sound ([1]; 338.15 K): 1070.8 ± 0.76 m/s; mass density ([1]; 338.15 K): 765.96 ± 2 kg/m3
CCCO [propan-1-ol] + CCn1cc[n+](C)c1.O=S(=O)([N-]S(=O)(=O)C(F)(F)F)C(F)(F)F,3.191 ± 0.072 mPa·s,1275.5 ± 0.82 m/s,815.46 ± 2 kg/m3,1.936 ± 0.07 mPa·s,1205.3 ± 0.8 m/s,799.55 ± 2 kg/m3,1.242 ± 0.069 mPa·s,1137.5 ± 0.78 m/s,783.18 ± 2 kg/m3,0.836 ± 0.068 mPa·s,1070.8 ± 0.76 m/s,765.96 ± 2 kg/m3,
CCCO [propan-1-ol] + CCCC[n+]1ccn(C)c1.O=S(=O)([N-]S(=O)(=O)C(F)(F)F)C(F)(F)F,3.191 ± 0.072 mPa·s,1275.5 ± 0.82 m/s,815.46 ± 2 kg/m3,1.936 ± 0.07 mPa·s,1205.3 ± 0.8 m/s,799.55 ± 2 kg/m3,1.242 ± 0.069 mPa·s,1137.5 ± 0.78 m/s,783.18 ± 2 kg/m3,0.836 ± 0.068 mPa·s,1070.8 ± 0.76 m/s,765.96 ± 2 kg/m3,
CCCO [propan-1-ol] + CCCCCC[n+]1ccn(C)c1.O=S(=O)([N-]S(=O)(=O)C(F)(F)F)C(F)(F)F,3.191 ± 0.072 mPa·s,1275.5 ± 0.82 m/s,815.46 ± 2 kg/m3,1.936 ± 0.07 mPa·s,1205.3 ± 0.8 m/s,799.55 ± 2 kg/m3,1.242 ± 0.069 mPa·s,1137.5 ± 0.78 m/s,783.18 ± 2 kg/m3,0.836 ± 0.068 mPa·s,1070.8 ± 0.76 m/s,765.96 ± 2 kg/m3,
